According to US5869447A, “Cyclohexapeptides and their mixtures, a process for preparing them, and their use” (Hoechst Aktiengesellschaft, priority 1994, dated 1999):
In brackets after ≈: the same amount, converted by molar mass. Square brackets hold non-standard residues; d marks the D form. Peptide text beside a SMILES is read from it. Hyp = O=C(O)[C@@H]1C[C@@H](O)CN1

System: IL-4 receptor (receptor/Fc fusion protein)
Test: Specific inhibition of IL-4 binding in cell-free binding assays (IC50 table)
Details: cell-free IL-4 binding assay, biotinylated ligand 100 ng/ml, PBSA with 5% DMSO; table does not say whether huIL-4 or muIL-4 test
Excerpt: Specific inhibition of IL-4 Binding in Cell-free Binding Assays.
EP 488 170 A1, which is incorporated herein by reference, discloses cell-free binding tests. For carrying them out, recombinant chimeric proteins were used which comprise the extracellular region of what are normally membrane-located receptors on to whose carboxyl terminus has been fused the Fc region of a heavy immunoglobulin chain composed of hinge, CH2 and CH3 domains. These so-called receptor/Fc fusion proteins can be bound, while retaining the specific receptor binding activity, to solid phases which have previously been coated, for example, with monoclonal antibodies directed against the Fc moiety. For this example, Nunc® type B ELISA plates were used as the solid phase. Receptor/Fc fusion proteins, dissolved in PBS containing 10 mg/ml BSA (PBSA), were bonded to these pre-treated plates (huIL-4R/Fc: 500 ng/ml; muIL-4R/Fc: 250 ng/ml; huIL-lR/Fc: 125 ng/ml; at room temperature for 1 h). […] The plates were incubated at room temperature for 1 h in PBSA containing 5% DMSO. After having been washed, the plates were incubated at room temperature for 20 min with streptavidin/peroxidase (Amersham, 1:2000 in PBSA). The bound peroxidase was detected after the plates had been washed repeatedly in a solution of tetramethylbenzidine substrate (Behringwerke). The extinction at 450 nm, which directly reflects the quantity of the biotinylated ligand bound to the receptor, was measured after the plates had been incubated for 30 min. For FIGS. 1-3, the measured extinction signal was plotted against the concentration of the competing agent with the 100% value being the extinction which was measured in the absence of any competing agent.

Row | SMILES | IC50 [µg/mL]
1 | CC(C)[C@@H]1NC(=O)[C@H](Cc2ccc(O)cc2)NC(=O)[C@@H](C)NC(=O)[C@H](C(C)C)NC(=O)[C@H](Cc2ccc(O)cc2)NC(=O)[C@H](CCCNC(=N)N)NC1=O [cyclo(Tyr--Val--Arg--Tyr--Val--(D)--Ala), cyclo(Tyr-Val-Arg-Tyr-Val-(D)-Ala)] (cyclo(RYV[dA]YV)) | 96.6 (≈ 128 µM)
2 | CC(C)[C@@H]1NC(=O)[C@H](Cc2ccc(O)cc2)NC(=O)[C@@H]2C[C@@H](O)CN2C(=O)[C@H](C(C)C)NC(=O)[C@H](Cc2ccc(O)cc2)NC(=O)[C@@H](C)NC1=O [cyclo(Tyr--Val--Hyp--Tyr--Val--(D)--Ala), cyclo(Tyr-Val-Hyp-Tyr-Val-(D)-Ala)] (cyclo([Hyp]YV[dA]YV)) | 17.4 (≈ 24.5 µM)
3 | CC[C@H](C)[C@@H]1NC(=O)[C@H](C(C)C)NC(=O)[C@H](Cc2ccc(O)cc2)NC(=O)[C@@H](C)NC(=O)[C@H](C(C)C)NC(=O)[C@H](Cc2ccc(O)cc2)NC1=O [cyclo(Tyr--Val--Ile--Tyr--Val--(D)--Ala), cyclo(Tyr-Val-Ile-Tyr-Val-(D)-Ala)] (cyclo(IYV[dA]YV)) | 62.5 (≈ 88.2 µM)
4 | CC(C)C[C@@H]1NC(=O)[C@H](C(C)C)NC(=O)[C@H](Cc2ccc(O)cc2)NC(=O)[C@@H](C)NC(=O)[C@H](C(C)C)NC(=O)[C@H](Cc2ccc(O)cc2)NC1=O [cyclo(Tyr--Val--Leu--Tyr--Val--(D)--Ala), cyclo(Tyr-Val-Leu-Tyr-Val-(D)-Ala)] (cyclo(LYV[dA]YV)) | 41.3 (≈ 58.3 µM)

More lines, now with the values ahead:

Row | IC50 [µg/mL] | SMILES
5 | 8.3 (≈ 12.4 µM) | CC(C)[C@@H]1NC(=O)[C@H](Cc2ccc(O)cc2)NC(=O)[C@@H](C)NC(=O)[C@H](C(C)C)NC(=O)[C@H](Cc2ccc(O)cc2)NC(=O)[C@H](C)NC1=O [cyclo(Tyr--Val--Ala--Tyr--Val--(D)--Ala), cyclo(Tyr-Val-Ala-Tyr-Val-(D)-Ala)] (cyclo(AYV[dA]YV))
6 | 92.0 (≈ 132 µM) | CC(C)[C@@H]1NC(=O)[C@H](Cc2ccc(O)cc2)NC(=O)[C@@H](C)NC(=O)[C@H](C(C)C)NC(=O)[C@H](Cc2ccc(O)cc2)NC(=O)[C@H]([C@@H](C)O)NC1=O [cyclo(Tyr--Val--Thr--Tyr--Val--(D)--Ala), cyclo(Tyr-Val-Thr-Tyr-Val-(D)-Ala)] (cyclo(TYV[dA]YV))
7 | 16.7 (≈ 25 µM) | CC(C)[C@@H]1NC(=O)[C@H](C)NC(=O)[C@H](Cc2ccc(O)cc2)NC(=O)[C@H](C(C)C)NC(=O)[C@@H](C)NC(=O)[C@H](Cc2ccc(O)cc2)NC1=O [cyclo(Val--Tyr--Ala--Val--Tyr--(D)--Ala), cyclo(Val-Tyr-Ala-Val-Tyr-(D)-Ala)] (cyclo(AVY[dA]VY))
